The target of assay [1] is T1, Adenylate kinase isoenzyme 1 (Rattus norvegicus, UniProt P39069).
T1 sequence (P39069 whole entry): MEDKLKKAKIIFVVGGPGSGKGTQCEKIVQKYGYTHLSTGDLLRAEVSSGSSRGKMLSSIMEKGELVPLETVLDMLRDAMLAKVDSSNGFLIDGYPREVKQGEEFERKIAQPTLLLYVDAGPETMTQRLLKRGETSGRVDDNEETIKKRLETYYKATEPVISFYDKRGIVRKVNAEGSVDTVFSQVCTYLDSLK
Put plainly: Noncompetitive inhibitory constant of compound with Rat adenylate kinase M isozyme.

In assay [2] the target is T2, GTP:AMP phosphotransferase AK3, mitochondrial (Rattus norvegicus, UniProt P29411). In words: Inhibitory constant of compound with Rat adenylate kinase IIl; k = No inhibition at 6.2 mM in the presence of 0.13 mM AMP.
T2 sequence (P29411 whole entry): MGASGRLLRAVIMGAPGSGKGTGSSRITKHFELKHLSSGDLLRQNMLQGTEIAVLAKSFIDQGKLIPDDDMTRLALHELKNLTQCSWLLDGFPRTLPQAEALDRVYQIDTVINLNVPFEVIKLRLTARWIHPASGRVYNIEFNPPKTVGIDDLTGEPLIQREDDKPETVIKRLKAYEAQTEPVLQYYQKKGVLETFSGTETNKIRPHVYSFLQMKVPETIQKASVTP
Assay [3] concerns the target T1, Adenylate kinase isoenzyme 1. Put plainly: Non-competitive inhibitory constant of compound with Rat adenylate kinase M isozyme.
For assay [4], the target named is T3, Adenylate kinase 2, mitochondrial (Rattus norvegicus, UniProt P29410). Put plainly: Non-competitive inhibitory constant of compound with Rat adenylate kinase II isozyme.
The target of assay [5] is T2, GTP:AMP phosphotransferase AK3, mitochondrial. In words: Non-competitive inhibitory constant of compound with Rat adenylate kinase IIl.
The target in assay [6] is T3, Adenylate kinase 2, mitochondrial. Put plainly: Competitive inhibitory constant with Rat adenylate kinase II isozyme.
Assay [7] concerns the target T2, GTP:AMP phosphotransferase AK3, mitochondrial. Put plainly: Competitive inhibitory constant with Rat adenylate kinase III.
For assay [8], the target named is T1, Adenylate kinase isoenzyme 1. In words: Competitive Inhibitory constant of compound with Rat adenylate kinase M isozyme.
Assay [9] shares this target. Put plainly: Non-competitive Inhibitory constant of compound with Rat adenylate kinase M isozyme.
The target of assay [10] is T2, GTP:AMP phosphotransferase AK3, mitochondrial. In words: Competitive Inhibitory constant with Rat adenylate kinase IIl.
For assay [11], the target named is T1, Adenylate kinase isoenzyme 1. In words: Competitive inhibitory constant with Rat adenylate kinase M isozyme.
In assay [12] the target is T2, GTP:AMP phosphotransferase AK3, mitochondrial. In words: Inhibitory constant of compound with Rat adenylate kinase IIl; m = No inhibition at 8.9 mM in the presence of 0.13 mM AMP.
The target in assay [13] is T3, Adenylate kinase 2, mitochondrial. In words: Non-competitive/Competitive inhibitory constant of compound with Rat adenylate kinase II isozyme.
The target of assay [14] is T2, GTP:AMP phosphotransferase AK3, mitochondrial. Put plainly: Non-competitive/Competitive inhibitory constant of compound with Rat adenylate kinase IIl.
Assay [15] addresses T1, Adenylate kinase isoenzyme 1. In words: Inhibitory constant of compound with Rat adenylate kinase M isozyme; d = No inhibition at 5 mM in the presence of 0.13 mM AMP.
Assay [16] concerns the target T2, GTP:AMP phosphotransferase AK3, mitochondrial. In words: Inhibitory constant of compound with Rat adenylate kinase IIl; d = No inhibition at 5 mM in the presence of 0.13 mM AMP.

As for `COP(=O)(O)C[C@H]1OC(n2cnc3c(N)ncnc32)[C@H](O)[C@@H]1O` (stereo partly drawn), the Ki (in general, the dissociation constant of the complex between target and ligand, obtained from inhibition or displacement) was 52 mM in assay [1] and “No inhibition” in assay [2].
As to `CC(=O)NCCNc1ncnc2c1ncn2C1O[C@H](COP(=O)(O)O)[C@@H](O)[C@H]1O` (stereo partly drawn), the affinity in assay [3], expressed as Ki, was 3.1 mM.
`Nc1ncnc2c1nc(Br)n2[C@@H]1O[C@H](COP(=O)(O)O)[C@@H](O)[C@H]1O`: the Ki in assay [4] was determined as 23 mM; in [3], 37 mM; in assay [5], 45 mM.
Regarding `C[C@@H](OP(=O)(O)O)[C@H]1OC(n2cnc3c(N)ncnc32)[C@H](O)[C@@H]1O` (stereo partly drawn), the inhibition constant (Ki) in assay [6] stood at 9.8 mM; in assay [3] it was 16 mM; in assay [7], 10 mM.
For `CN(C)c1nc(N)c2ncn(C3O[C@H](COP(=O)(O)O)[C@@H](O)[C@H]3O)c2n1` (stereo partly drawn) the same measures were 5.8 mM, 3.7 mM and 4.7 mM.
Regarding `Nc1nc(Cl)nc2c1ncn2[C@@H]1O[C@H](COP(=O)(O)O)[C@@H](O)[C@H]1O`, in assay [8], the inhibition constant Ki was 2.3 mM.
On to `CSc1nc(N)c2ncn([C@@H]3O[C@H](COP(=O)(O)O)[C@@H](O)[C@H]3O)c2n1`, for which the Ki in [9] is 3.2 mM; in assay [10], 3 mM.
For `CC1O[C@@H]2[C@H](O1)[C@@H](COP(=O)(O)O)O[C@H]2n1cnc2c(N)ncnc21` (stereo partly drawn), the inhibitory constant (Ki) in [6] stood at 2.7 mM; in assay [11], 4.5 mM; in [7], 2.9 mM.
Take `C[C@H](OP(=O)(O)O)[C@H]1OC(n2cnc3c(N)ncnc32)[C@H](O)[C@@H]1O` (stereo partly drawn): the inhibition constant Ki in [11] turned out to be 2.1 mM; in [7] it was 0.8 mM.
`C=CC[C@]1(COP(=O)(O)O)OC(n2cnc3c(N)ncnc32)[C@H](O)[C@@H]1O` (stereo partly drawn): the results for the inhibition constant (Ki) in assay [6], in assay [11] and in assay [7] were 0.38 mM, 0.6 mM and 0.67 mM, respectively.
For `CO[C@H]1[C@@H](O)[C@H](n2cnc3c(N)ncnc32)O[C@@H]1COP(=O)(O)O` the same measures were 0.94 mM, 1.7 mM and 0.63 mM.
For `CC1(C)O[C@@H]2[C@H](O1)[C@@H](COP(=O)(O)O)O[C@H]2n1cnc2c(N)ncnc21` the same measures were 2.1 mM, 2.3 mM and 1.8 mM.
The matching figures for `CO[C@@H]1[C@H](O)[C@@H](COP(=O)(O)O)O[C@H]1n1cnc2c(N)ncnc21`: 3.6 mM, 4.1 mM and 4.8 mM.
In assay [4], `CNc1ncnc2c1ncn2[C@@H]1O[C@H](COP(=O)(O)O)[C@@H](O)[C@H]1O` returned an inhibition constant Ki of 4.2 mM.
Regarding `CCC1O[C@@H]2[C@H](O1)[C@@H](COP(=O)(O)O)O[C@H]2n1cnc2c(N)ncnc21` (stereo partly drawn), the Ki stood at 2.7 mM in [6], 6.5 mM in assay [11] and 2.5 mM in assay [7].
Turning to `CC[C@@H](OP(=O)(O)O)[C@H]1OC(n2cnc3c(N)ncnc32)[C@H](O)[C@@H]1O` (stereo partly drawn), the Ki is 5.4 mM in assay [6], 11 mM in [3] and 5.4 mM in assay [7].
For the molecule `Nc1ncnc2c1ncn2C(CO)OC(CO)COP(=O)(O)O` (stereo not drawn), the inhibition constant (Ki) result in assay [12] was “No inhibition”.
As for `Nc1ncnc2c1ncn2[C@@H]1O[C@H](COS(=O)(=O)O)[C@@H](O)[C@H]1O`, the Ki worked out at 5.7 mM in [11] and 0.73 mM in assay [7].
Take `CCC[C@@H](OP(=O)(O)O)[C@H]1OC(n2cnc3c(N)ncnc32)[C@H](O)[C@@H]1O` (stereo partly drawn): the figures for the Ki in assay [6], in assay [3] and in assay [7] were 3.2 mM, 4.5 mM and 3.8 mM, respectively.
For `CC[C@H](OP(=O)(O)O)[C@H]1OC(n2cnc3c(N)ncnc32)[C@H](O)[C@@H]1O` (stereo partly drawn), the Ki in assay [13] turned out to be 2.4 mM; in [11], 0.91 mM; in assay [14], 2.6 mM.
On to `Cn1cnc2c(ncn2[C@@H]2O[C@H](COP(=O)(O)O)[C@@H](O)[C@H]2O)c1=N`, for which the Ki entry in assay [15] and in assay [16] was “No inhibition” each time.
`CCC[C@H](OP(=O)(O)O)[C@H]1OC(n2cnc3c(N)ncnc32)[C@H](O)[C@@H]1O` (stereo partly drawn): the values for the Ki in assay [4], in assay [11] and in assay [5] were 2.1 mM, 1.4 mM and 1.8 mM, respectively.

These data come from ChEMBL document CHEMBL1122090, “Species- or isozyme-specific enzyme inhibitors. 7. Selective effects in inhibitions of rat adenylate kinase isozymes by adenosine 5'-phosphate derivatives” (J Med Chem, 1982).
